These results are taken from patent US10391151B2, “Dilute surfactant or isolated surfactant protein solution for the reduction of surface tension in the lung” (The Trustees of the Stevens Institute of Technology, priority 2015, dated 2019).

Where no end group is shown, it is not given here. The star is where a group is joined. Biotin = O=C1N[C@H]2[C@H](CS[C@H]2CCCCC(=O)*)N1

Assay [1] concerns surface alveoli of the isolated adult rat lung. Description: Surface tension determination in alveoli of the isolated adult rat lung (Method 1). As to the method:
Method 1. Surface tension determination in the adult rat lung. […] In flooded alveoli, the air-liquid interface forms a meniscus, at which surface tension is determined as follows. Alveolar air pressure is determined with a transducer at the trachea of the constantly-inflated lung. Alveolar liquid phase pressure is determined by servo-nulling pressure measurement. Meniscus radius of curvature is determined by confocal microscopy. Surface tension is calculated according to the Lapalce relation.
1. direct surface tension determination in surface alveoli of the isolated adult rat lung, which contains native lung surfactant, following alveolar instillation of a test solution;

For assay [2], the system named is heterogeneously flooded region of the isolated, perfused adult rat lung. The assay can be described thus: Ventilation injury score in the isolated, perfused adult rat lung (Method 2). As to conditions: for Injury score: flooding solution normal saline with 5% albumin, solutes at about the concentrations present in 1% SURVANTA solution, n=1 or 2/group (FIG. 2A). An excerpt: Method 2. Ventilation ‘injury score’ in the adult rat lung. In the isolated, perfused adult rat lung, a surface alveolus is micropunctured and a non-fluorescent test solution is instilled. In experimental regions, a sufficiently large volume of liquid is instilled to generate a pattern of heterogeneous alveolar flooding; in control regions, a sufficiently small volume of liquid is instilled that the liquid spontaneously clears from the region, leaving behind a micropunctured-but-aerated region. Fluorescent dye, at a low concentration verified not to alter surface tension, is included in the perfusate. The region is imaged by confocal microscopy over a five minute baseline period at a constant transpulmonary pressure of 5 cm H2O. Five ventilation cycles are supplied to the lung, at 0.33 Hz with a positive end-expiratory pressure of 15 cm H2O and a tidal volume of 6 ml/kg body weight. The lung is then returned to a constant transpulmonary pressure of 5 cm H2O and imaged for 10 additional minutes. Alveolar liquid fluorescence at all time points is normalized by capillary fluorescence.
At baseline, alveolar liquid fluorescence (in flooded alveoli of experimental regions or in the liquid lining layer of control, aerated regions) is low and constant in all regions. Following ventilation, alveolar liquid fluorescence remains unchanged in aerated regions but continually increases with time in heterogeneously flooded regions. […] The increase above baseline in normalized alveolar liquid fluorescence at the last time point of the experiment is used as an injury score. The injury score, which indicates the rate of increase of normalized fluorescence following ventilation, correlates with surface tension of the test solution.
2. degree of ventilation induced injury in a region of the isolated, perfused adult rat lung in which surface alveoli have been flooded, in a heterogeneous fashion, with a test solution;

Where [3] appears, read: 10 μM NaOH alone, without dextran, in the absence or presence of SURVANTA

For the molecule fibrinogen, the “Facilitation of the surface activity of 1 vol % SURVANTA” value in assay [1] (5 w/v % solute, adult rat lung, dextran negative charge imparted by 10 μM NaOH (FIGS. 1A and B)) was “facilitate”.
As to “sSP-Css-ion lock-B: a variant of sSP-Css-ion lock with a biotinylated N-terminal (Biotin-GIPSSPVHLKRLLIVVVVVELIVKVIVGALLMGL)”, in assay [2], the Injury score entry is on record as “lower injury score”.
On the same count and under the same terms, the value for `CCCCCCCCCCCCCCCC(=O)OC[C@H](COP(=O)([O-])OCC[N+](C)(C)C)OC(=O)CCCCCCCCCCCCCCC` [DPPC, dipalmitoylphosphatidylcholine, reference compound] was “Only SP-C and sSP-C lower injury score”.
On to `[Na+].[OH-]` [NaOH], for which the “Effect on surface tension” value in assay [1] (setting [3]) is “no effect”. Besides, the “Effect on lung injury” value in assay [2] (setting [3]) is reported as “no effect”.

B1: SP-B: surfactant protein B isolated from pulmonary alveolar proteinosis patients (protein, UniProt P07988 201-279, looked up)
Pulmonary …: FPIPLPYCWLCRALIKRIQAMIPKGALAVAVAQVCRVVPLVAGGICQCLAERYSVILLDTLLGRMLPQLVCRLVLRCSM
modifications: Pulmonary surfactant-associated protein B
notes: surfactant protein B isolated from pulmonary alveolar proteinosis patients
On to B1, for which, in assay [2], the Injury score entry was “Only SP-C and sSP-C lower injury score”.
